Drawing on US20240101546A1, “HETEROARYL-ACETYLENES, PHARMACEUTICAL COMPOSITIONS THEREOF, AND THEIR THERAPEUTIC APPLICATIONS” (Eubulus Biotherapeutics Inc., priority 2020, published 2024), this text covers EC50 for 33 compounds.

Bounds are passed on as bounds.

This assay concerns lung cancer cell line NCI-H82. Briefly: Cell proliferation assay, NCI-H82 (CELL-TITER GLO). Type of assay: cell-based. The settings on record: Homo sapiens, NCI-H82, 72 h, NCI-H82 cells, 72 h incubation, cell viability by CELL-TITER GLO, top concentration 1 μM; read-out: EC50, Inhibition of NCl-H82 Cell Proliferation. The essentials: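 NCI-H82 cells, 1,000 per well in RPMI1640, were treated after overnight plating with a 3-fold dilution series from 1 μM. Viability read by CellTiter-Glo luminescence after 72 h. EC50 derived from the curves.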
Turning to `C#Cc1nc(NC(=O)NCc2ccc(-c3cccc4nc(OCCO)nc(O)c34)cc2)cs1` [Compound A172, 1-(2-Ethynylthiazol-4-yl)-3-(4-(4-hydroxy-2-(2-hydroxyethoxy)quinazolin-5-yl)-benzyl)urea], the EC50 was at most 200 nM.

With `C#Cc1nc(NC(=O)N[C@@H](CO)c2ccc(-c3cccnc3C3(C#N)CC3)cc2)cs1` [Compound A62, (R)-1-(1-(4-(2-(1-Cyanocyclopropyl)pyridin-3-yl)phenyl)-2-hydroxyethyl)-3-(2-ethynylthiazol-4-yl)urea], the EC50 is at most 200 nM.

As to `C#Cc1nc(NC(=O)NCc2ccc(-c3cccc4ncsc34)cn2)cs1` [Compound A179, 1-((5-(Benzo[d]thiazol-7-yl)pyridin-2-yl)methyl)-3-(2-ethynylthiazol-4-yl)urea], the EC50 is at most 200 nM.

As for `C#Cc1nc(NC(=O)NCC(=O)N2CCC(c3ccccc3C#N)CC2)cs1` [Compound A35, 1-(2-(4-(2-Cyanophenyl)piperidin-1-yl)-2-oxoethyl)-3-(2-ethynylthiazol-4-yl)urea], the EC50 is 200 to 1000 nM.

On to `C#Cc1nnc(NC(=O)N(C)[C@@H](COC(N)=O)c2ccc(-c3cccc(N4CCCC4)n3)cc2)s1` [Compound A95, (R)-2-(3-(5-Ethynyl-1,3,4-thiadiazol-2-yl)-1-methylureido)-2-(4-(6-(pyrrolidin-1-yl)pyridin-2-yl)phenyl)ethyl carbamate], for which the EC50 is at most 200 nM.

In the case of `C#Cc1nc(NC(=O)N[C@@H](CO)c2ccc(-c3cccc(C4(C#N)CC4)c3)cc2)cs1` [Compound A187, (R)-1-(1-(3′-(1-Cyanocyclopropyl)-[1,1′-biphenyl]-4-yl)-2-hydroxyethyl)-3-(2-ethynylthiazol-4-yl)urea], the EC50 is at most 200 nM.

Take `C#Cc1nc(NC(=O)N[C@@H](CO)c2ccc(-c3cccc(N4CCC4)c3)cc2)cs1` [Compound A190, (R)-1-(1-(3′-(Azetidin-1-yl)-[1,1′-biphenyl]-4-yl)-2-hydroxyethyl)-3-(2-ethynyl-thiazol-4-yl)urea]: the EC50 is at most 200 nM.

For the compound `C#Cc1nc(NC(=O)N[C@@H](COC(N)=O)c2ccc(-c3cccc4cncnc34)cc2)cs1` [Compound A50, (R)-2-(3-(2-Ethynylthiazol-4-yl)ureido)-2-(4-(quinazolin-8-yl)phenyl)ethyl carbamate], the EC50 was at most 200 nM.

Regarding `C#Cc1nc(NC(=O)N(CCC#N)Cc2ccc(-c3cccc4ncsc34)cc2)cs1` [Compound A205, 1-(4-(Benzo[d]thiazol-7-yl)benzyl)-1-(2-cyanoethyl)-3-(2-ethynylthiazol-4-yl)urea], the EC50 was at most 200 nM.

Turning to `C#Cc1nc(NC(=O)N[C@@H](CO)c2ccc(C3CCN(C)CC3)cc2)cs1` [Compound A184, (R)-1-(2-Ethynylthiazol-4-yl)-3-(2-hydroxy-1-(4-(1-methylpiperidin-4-yl)phenyl)-ethyl)urea], the EC50 fell in the range of 200 to 1000 nM.

Consider `C#Cc1ccnc(NC(=O)N[C@@H](CO)c2ccc(-c3cccc(N4CCCC4)n3)cc2)n1` [Compound A123, (R)-1-(4-Ethynylpyrimidin-2-yl)-3-(2-hydroxy-1-(4-(6-(pyrrolidin-1-yl)pyridin-2-yl)phenyl)ethyl)urea], for which the EC50 is at most 200 nM.

For `C#Cc1nc(NC(=O)N[C@@H](CO)c2ccc(C3CCCN(C)C3)cc2)cs1` (stereo partly drawn) [Compound A192, 1-(2-Ethynylthiazol-4-yl)-3-((1R)-2-hydroxy-1-(4-(1-methylpiperidin-3-yl)-phenyl)ethyl)urea], the EC50 fell in the range of 200 to 1000 nM.

`C#Cc1nc(NC(=O)N[C@@H](COC(N)=O)c2ccc(-c3cccc4ccncc34)cc2)cs1` [Compound A49, (R)-2-(3-(2-Ethynylthiazol-4-yl)ureido)-2-(4-(isoquinolin-8-yl)phenyl)ethyl carbamate]: the EC50 is at most 200 nM.

For the compound `C#Cc1nc(NC(=O)N[C@@H](CO)c2ccc(-c3cccc4ncnc(O)c34)c(Cl)c2)cs1` [Compound A110, (R)-1-(1-(3-Chloro-4-(4-hydroxyquinazolin-5-yl)phenyl)-2-hydroxyethyl)-3-(2-ethynylthiazol-4-yl)urea], the EC50 was at most 200 nM.

For `C#Cc1nc(NC(=O)N[C@@H](COC(N)=O)c2ccc(-c3ncccc3C3(C#N)CC3)cc2)cs1` [Compound A58, (R)-2-(4-(3-(1-Cyanocyclopropyl)pyridin-2-yl)phenyl)-2-(3-(2-ethynylthiazol-4-yl)ureido)ethyl carbamate], the EC50 is at most 200 nM.

`C#Cc1nc(NC(=O)N[C@@H](COC(N)=O)c2ccc(-c3cccnc3N(C)C)cc2)cs1` [Compound A99, (R)-2-(4-(2-(Dimethylamino)pyridin-3-yl)phenyl)-2-(3-(2-ethynylthiazol-4-yl)-ureido)ethyl carbamate]: the EC50 is at most 200 nM.

On to `C#Cc1nc(NC(=O)N[C@H](CO)C(=O)N2CCN(c3ccccc3C#N)CC2)cs1` [Compound A148, (R)-1-(1-(4-(2-Cyanophenyl)piperazin-1-yl)-3-hydroxy-1-oxopropan-2-yl)-3-(2-ethynylthiazol-4-yl)urea], for which the EC50 was at most 200 nM.

In the case of `C#Cc1nc(N(C)C(=O)N(C)[C@@H](CO)c2ccc(-c3cccc4ncsc34)cc2)cs1` [Compound A113, (R)-1-(1-(4-(Benzo[d]thiazol-7-yl)phenyl)-2-hydroxyethyl)-3-(2-ethynylthiazol-4-yl)-1,3-dimethylurea], the EC50 was in the range of 200 to 1000 nM.

Turning to `C#Cc1nc(NC(=O)N[C@@H](COC(N)=O)c2ccc(-c3cccc4c3cnn4C)cc2)cs1` [Compound A231, (R)-2-(3-(2-Ethynylthiazol-4-yl)ureido)-2-(4-(1-methyl-1H-indazol-4-yl)phenyl)-ethyl carbamate], the EC50 was at most 200 nM.

As for `C#Cc1nc(NC(=O)N[C@@H](CO)c2ccc(-c3cccnc3C3(C#N)CC3)c(F)c2)cs1` [Compound A68, (R)-1-(1-(4-(2-(1-Cyanocyclopropyl)pyridin-3-yl)-3-fluorophenyl)-2-hydroxy-ethyl)-3-(2-ethynylthiazol-4-yl)urea], the EC50 was at most 200 nM.

Turning to `C#Cc1nc(NC(=O)N[C@@H](CO)c2ccc(N3CCCc4c3cnn4C)cc2)cs1` [Compound A139, (R)-1-(2-Ethynylthiazol-4-yl)-3-(2-hydroxy-1-(4-(1-methyl-1,5,6,7-tetrahydro-4H-pyrazolo[4,3-b]pyridin-4-yl)phenyl)ethyl)urea], the EC50 was at most 200 nM.

For `C#Cc1nc(NC(=O)N[C@@H](COC(N)=O)c2ccc(N3CC(F)(F)C3)cc2)cs1` [Compound A127, (R)-2-(4-(3,3-Difluoroazetidin-1-yl)phenyl)-2-(3-(2-ethynylthiazol-4-yl)ureido)-ethyl carbamate], the EC50 was at most 200 nM.

As to `C#Cc1nc(NC(=O)NCc2ccc(N3CCCC3C(N)=O)cc2)cs1` (stereo not drawn) [Compound A31, 1-(4-((3-(2-Ethynylthiazol-4-yl)ureido)methyl)phenyl)pyrrolidine-2-carboxamide], the EC50 fell in the range of 200 to 1000 nM.

As for `C#Cc1nc(NC(=O)N[C@H](CO)c2ccc(-c3cccnc3C3(C#N)CC3)c(Cl)c2)cs1` [Compound A66, (S)-1-(1-(3-Chloro-4-(2-(1-cyanocyclopropyl)pyridin-3-yl)phenyl)-2-hydroxy-ethyl)-3-(2-ethynylthiazol-4-yl)urea], the EC50 was at most 200 nM.

Take `C#Cc1nc(NC(=O)N[C@@H](COC(N)=O)c2ccc(-c3ccccc3C3(C#N)CC3)cc2)cs1` [Compound A55, (R)-2-(2′-(1-Cyanocyclopropyl)-[1,1′-biphenyl]-4-yl)-2-(3-(2-ethynylthiazol-4-yl)ureido)ethyl carbamate]: the EC50 was at most 200 nM.

Turning to `C#Cc1nc(NC(=O)N2CCN(c3ccc(-c4cccc(N5CCCC5)c4)cc3)C[C@H]2CO)cs1` [Compound B52, (S)—N-(2-Ethynylthiazol-4-yl)-2-(hydroxymethyl)-4-(3′-(pyrrolidin-1-yl)-[1,1′-biphenyl]-4-yl)piperazine-1-carboxamide], the EC50 is at most 200 nM.

For the compound `C#Cc1nc(NC(=O)N[C@H](CO)c2ccc(-c3cccc4ncsc34)cc2)cs1` [Compound A41, (S)-1-(1-(4-(Benzo[d]thiazol-7-yl)phenyl)-2-hydroxyethyl)-3-(2-ethynylthiazol-4-yl)urea], the EC50 was at most 200 nM.

Take `C#Cc1nc(NC(=O)N(CC#N)Cc2ccc(-c3cccc4ncsc34)cc2)cs1` [Compound A208, 1-(4-(Benzo[d]thiazol-7-yl)benzyl)-1-(cyanomethyl)-3-(2-ethynylthiazol-4-yl)urea]: the EC50 was at most 200 nM.

Regarding `C#Cc1nc(NC(=O)N[C@@H](CO)c2ccc(-c3cccc(C4(O)CCC4)c3)cc2)cs1` [Compound A189, (R)-1-(2-Ethynylthiazol-4-yl)-3-(2-hydroxy-1-(3′-(1-hydroxycyclobutyl)-[1,1′-biphenyl]-4-yl)ethyl)urea], the EC50 was at most 200 nM.

As to `C#Cc1nc(NC(=O)N[C@@H](CO)c2ccc(-c3cccc(N4CCC(F)(F)C4)c3)cc2)cs1` [Compound A181, (R)-1-(1-(3′-(3,3-Difluoropyrrolidin-1-yl)-[1,1′-biphenyl]-4-yl)-2-hydroxyethyl)-3-(2-ethynylthiazol-4-yl)urea], the EC50 is at most 200 nM.

Turning to `C#Cc1nc(NC(=O)N[C@H](COC(N)=O)c2ccc(-c3ccccc3C3(C#N)CC3)cn2)cs1` [Compound A61, (S)-2-(5-(2-(1-Cyanocyclopropyl)phenyl)pyridin-2-yl)-2-(3-(2-ethynylthiazol-4-yl)ureido)ethyl carbamate], the EC50 is at most 200 nM.

On to `C#Cc1nc(NC(=O)N[C@@H](COC(N)=O)c2ccc(-c3cccc4ccnc(O)c34)cc2)cs1` [Compound A105, (R)-2-(3-(2-Ethynylthiazol-4-yl)ureido)-2-(4-(1-hydroxyisoquinolin-8-yl)phenyl)-ethyl carbamate], for which the EC50 is at most 200 nM.

With `C#Cc1nc(NC(=O)N[C@@H](CO)c2ccc(-c3cccc(N4CC(F)(F)C4)c3)cc2)cs1` [Compound A191, (R)-1-(1-(3′-(3,3-Difluoroazetidin-1-yl)-[1,1′-biphenyl]-4-yl)-2-hydroxyethyl)-3-(2-ethynylthiazol-4-yl)urea], the EC50 is at most 200 nM.
